Measured values as given in patent publication US4497826A, “Antiparkinsonian agent” (priority 1981, dated 1985).
Read-outs that look alike come from different tables or passages of the source.

Tests used:
[1] = Side effects in the clinical tests; type: in vivo, human
[2] = acute toxicity (LD50) in mice; conditions: mouse, in vivo
[3] = tested on: parkinson's disease, freezing phenomenon; experiment: Clinical tests 1 to 7: treatment of parkinsonian patients with DL-threo-DOPS and a decarboxylase inhibitor; type: in vivo, human
Description: The patient was a person suffering from parkinson's disease, having a disease history of 12 years after being affected by the disease. The primary clinical features were moderate rigidity of the four limbs and trunk were slight tremor. At about 6 years after the start of the disease, L-DOPA therapy was started.
[…] The patient also had difficulty in writing.
This patient was then treated with DL-threo-DOPS in the following dosage, while keeping the administration of L-DOPA, the decarboxylase inhibitor (benserazide hydrochloride) and trihexyphenidyl hydrochloride at strictly the same dosage throughout the period of trial.
DL-threo-DOPS was orally administered to the patient in the form of a capsule (DL-DOPS content: 200 mg) as follows:
First to 2nd day 6 capsules per day
3rd to 4th day 9 capsules per day
5th to 6th day 12 capsules per day
It is noted that the decarboxylase inhibitor was not newly administered, because it was already administered together with L-DOPA.
The patient was a person suffering from parkinson's disease, whose main syndrome was "pure akinesia" which was first described by one of the present inventors [Narabayashi et al, Advances in Parkinsonism (eds., W. Birkmayer and O. Hornykiewicz) Roche Basle, pages 335-342 (1976)].
But on the other hand, motion such as going up or down the stairs could be done rather normally. Accordingly, such a syndrome is also called paradoxical kinesia.
The patient was treated with DL-threo-DOPS and a decarboxylase inhibitor (carbidopa) in the same dosage as in the above Clinical Test 1.
In the same manner, other patients as shown in Table 1 were treated with threo-DOPS and a decarboxylase inhibitor. The results are shown in Table 1 together with the data in the above Clinical Tests 1 and 2.

[4] = tested on: L-aromatic amino acid decarboxylase; conditions: cited from earlier work; for enzymatic decarboxylation of the stereoisomers: L- and D-, threo- and erythro-isomers; for nature of the norepinephrine formed: product of decarboxylation
brain norepinephrine = conditions: rats, cited from earlier work
heart norepinephrine = conditions: rats, combination with decarboxylase inhibitor; cited from earlier work
parkinson's disease [5] = experiment: Speed of response (transit time between two switches), patient of Clinical Test 6; type: in vivo, human; conditions: Clinical Test 6 patient
Description: The abscissa axis represents time (hour) after administration, and the ordinate axis means transit time (msec). The filled squares represent the transit time after DL-threo-DOPS intake and the open squares on the right side represent the transit time 2 hours after administation of L-DOPA, benserazid hydrochloride and trihexyphenidyl hydrochloride.
In order to quantitatively analyze the improvement of the syndromes in the above clinical tests, a speed of response was measured as to some patients in the tests.
Method for the measurement: The transit time was measured by using two switches (distance: 15 cm) in the same manner as described in Masao Kato and Kazuya Ando, "Parkinson's Disease, Physiopathology and Therapy", page 106, issued by Kanehara Shuppan on Mar. 31, 1978.
Results: The data of the patient in the above Clinical Test 6 are shown in the attached FIG. 1. As is shown in the figure, when it was measured before administration of DL-threo-DOPS (600 mg) and carbidopa (60 mg) and 1, 3, 4, 6 and 8 hours after the administration, the effect peaked at 4 hours after administration, and at the same time, the transit time was shortened about 170 msec as compared to that before administration of the drugs.

parkinson's disease [6] = experiment: Surface electromyogram, patient of Clinical Test 6; type: in vivo, human; conditions: DL-threo-DOPS 600 mg and carbidopa 60 mg, vs before administration
Description: FIGS. 2, 3 and 4 each show surface electromyograms after DL-threo-DOPS and carbidopa were administered in comparison with the surface electromygrams before administration of the drugs. The data of FIG. 2 relate to a tremor of the right upper arm at static state. The data of FIG. 3 relate to tonic stretch reflexes of the extensor muscle of right forearm. The data of FIG. 4 indicate improvement of the skillfulness when flexion and extension movement at the right wrist joint was tried. […] E in FIG. 3 represents the period of passive stretching.
As to the patient in the above Clinical Test 6, the effect of administration of DL-threo-DOPS (600 mg) and carbidopa (60 mg) was measured by surface electromyogram, which was compared with that measured before the administration of drugs.

decarboxylase = conditions: DL-threo-DOPS vs DL-erythro-DOPS; printed as "1/10 smaller"; cited from earlier work
parkinson's disease [7] = conditions: human, 300 mg intravenous; cited from earlier work
narcolepsy = conditions: six patients, 200 mg intravenous; cited from earlier work
[8] = Clinical Test 1, 3rd day, with L-DOPA, benserazide, trihexyphenidyl
[9] = Clinical Test 1, 5th day, with L-DOPA, benserazide, trihexyphenidyl

Q: Which results are given for `N[C@H](C(=O)O)[C@H](O)c1ccc(O)c(O)c1` (relative stereo) [threo-DOPS, threo-3,4-dihydroxyphenylserine]?
A: serious side effects [1]: serious side effects were not observed; LD50 ([2]; ip): ~10000 mg/kg; LD50 ([2]; po): > 10000 mg/kg

Q: Which results are given for `N[C@@H](Cc1ccc(O)c(O)c1)C(=O)O` [L-DOPA, L-3,4-dihydroxyphenylalanine, reference compound]?
A: stiffness and tremor ([3]; Clinical Test 1 patient, earlier L-DOPA 400 mg, benserazide 100 mg, trihexyphenidyl 6 mg daily, oral): the stiffness and tremor were improved; stiffness and tremor ([3]; Clinical Test 1 patient, earlier L-DOPA therapy): improved the stiffness and tremor remarkably; freezing ([3]; Clinical Test 1 patient, increased amount of L-DOPA): it became worse

Q: Which “enzymatic decarboxylation of the stereoisomers” value [4] does the source give for `N[C@H](C(=O)O)[C@@H](O)c1ccc(O)c(O)c1` [L-erythro-DOPS, reference compound] here?
A: can be decarboxylated

Q: What about the “nature of the norepinephrine formed” value [4] of the same compound?
A: not natural

Q: With `NC(C(=O)O)C(O)c1ccc(O)c(O)c1` (centres unmarked) [DOPS] as the compound, how does the decarboxylation to norepinephrine ([4]; in vivo and in vitro) read?
A: can be decarboxylated

Q: Which “enzymatic decarboxylation of the stereoisomers” value [4] does the source give for `N[C@H](C(=O)O)[C@H](O)c1ccc(O)c(O)c1` [L-threo-DOPS] here?
A: can be decarboxylated

Q: What about the “nature of the norepinephrine formed” value [4] of the same compound?
A: confirmed as natural l-norepinephrine

Q: What about the “DOPS-induced rise of norepinephrine in the brain” value (brain norepinephrine; combination with decarboxylase inhibitor) of the same compound?
A: did not enhance

Q: What about the “accumulation of norepinephrine in the brain” value (brain norepinephrine; injection into a cerebral ventricle) of the same compound?
A: remarkable

Q: What about the “accumulation of norepinephrine in the brain” value (brain norepinephrine; intraperitoneal administration) of the same compound?
A: negligible

Q: What about the “penetration through B.B.B.” value (brain norepinephrine) of the same compound?
A: poor penetration

Q: And the “DOPS-induced rise of norepinephrine in the heart” value (heart norepinephrine)?
A: abolished

Q: For `N[C@H](C(=O)O)[C@H](O)c1ccc(O)c(O)c1` (relative stereo) [DL-threo-DOPS], which behavior and expression [3, 8] is on record?
A: more active behavior and expression

Q: And the difficulty in writing [3, 8]?
A: the difficulty in writing had disappeared

Q: What about the speaking [3, 8] of the same compound?
A: speaking more clearly than before

Q: And the walking [3, 8]?
A: much easier

Q: And the “falling down during walking” value [3, 9]?
A: no falling down during walking within rooms and passageways

Q: And the walking [3, 9]?
A: could walk smoothly without any assistance and the steps of the walk became almost normal with wide steps

Q: And the “improvement of the syndrome on maintenance” value ([3]; Clinical Test 1, reduced dose of 9 capsules per day)?
A: the improvement of the syndrome is still continuing

Q: What about the “walking and freezing in walking” value ([3]; Clinical Test 2, DL-threo-DOPS 1,800 mg and carbidopa 90 mg) of the same compound?
A: the walking was improved and the freezing in walking disappeared

Q: What about the walking ([3]; Clinical Test 2, several days after reaching DL-threo-DOPS 1,800 mg and carbidopa 90 mg) of the same compound?
A: the walking became almost normal

Q: And the “shortening of transit time compared to before administration” value (parkinson's disease [5]; 4 hours after DL-threo-DOPS 600 mg and carbidopa 60 mg)?
A: about 170 msec

Q: And the “time of peak effect on transit time after administration” value (parkinson's disease [5]; DL-threo-DOPS 600 mg and carbidopa 60 mg)?
A: 4 h

Q: And the “transit time compared with L-DOPA combination” value (parkinson's disease [5]; vs 2 hours after L-DOPA 100 mg, benserazide 25 mg, trihexyphenidyl hydrochloride 2 mg)?
A: shorter than the transit time measured at 2 hours after administration of L-DOPA

Q: And the “tremor of the right upper arm at the static state” value (parkinson's disease [6]; FIG. 2)?
A: remarkably decreased or improved

Q: And the “rigidity (stiffness) of the extensor muscle of the right forearm” value (parkinson's disease [6]; FIG. 3)?
A: remarkably decreased and improved

Q: What about the “tonic stretch reflex of the extensor muscle of the right forearm” value (parkinson's disease [6]; FIG. 3) of the same compound?
A: reduced

Q: What about the “skillfulness, flexion and extension movement at the right wrist joint” value (parkinson's disease [6]; FIG. 4) of the same compound?
A: remarkably improved

Q: What about the “rate of decarboxylation relative to DL-erythro-DOPS” value (decarboxylase) of the same compound?
A: 1/10

Q: What about the “effect on parkinson's disease” value (parkinson's disease [7]) of the same compound?
A: ineffective

Q: And the effect on narcolepsy (narcolepsy)?
A: ineffective
